Data published in ChEMBL document CHEMBL1268934, “Design, synthesis, and subtype selectivity of 3,6-disubstituted β-carbolines at Bz/GABA(A)ergic receptors. SAR and studies directed toward agents for treatment of alcohol abuse” (Bioorg Med Chem, 2010).

Tests used:
[1] = target: GABA-A receptor; alpha-3/beta-3/gamma-2 (Homo sapiens) (UniProt P18507+P28472+P34903); experiment: Agonist activity at human recombinant GABAA alpha-3-beta-3-gamma-2 receptor expressed in Xenopus oocytes at 1 to 10 uM by patch clamp technique; type: functional, cell-based; settings: Oocyte
[2] = target: GABA-A receptor; alpha-5/beta-3/gamma-2 (Homo sapiens) (UniProt P18507+P28472+P31644); experiment: Agonist activity at human recombinant GABAA alpha-5-beta-3-gamma-2 receptor expressed in Xenopus oocytes at 1 to 10 uM by patch clamp technique; type: functional, cell-based; settings: Oocyte
[3] = target: GABA-A receptor; alpha-1/beta-3/gamma-2 (Homo sapiens) (UniProt P14867+P18507+P28472); experiment: Agonist activity at human recombinant GABAA alpha-1-beta-3-gamma-2 receptor expressed in Xenopus oocytes at 1 to 10 uM by patch clamp technique; type: functional, cell-based; settings: Oocyte
[4] = target: T1, GABA A receptor alpha-4/beta-3/gamma-2 (Homo sapiens, UniProt P18507+P28472+P48169); experiment: Agonist activity at human recombinant GABAA alpha-4-beta-3-gamma-2 receptor expressed in Xenopus oocytes at 1 to 10 uM by patch clamp technique; type: functional, cell-based; settings: Oocyte
T1 sequence (P48169 whole entry, one chain of several): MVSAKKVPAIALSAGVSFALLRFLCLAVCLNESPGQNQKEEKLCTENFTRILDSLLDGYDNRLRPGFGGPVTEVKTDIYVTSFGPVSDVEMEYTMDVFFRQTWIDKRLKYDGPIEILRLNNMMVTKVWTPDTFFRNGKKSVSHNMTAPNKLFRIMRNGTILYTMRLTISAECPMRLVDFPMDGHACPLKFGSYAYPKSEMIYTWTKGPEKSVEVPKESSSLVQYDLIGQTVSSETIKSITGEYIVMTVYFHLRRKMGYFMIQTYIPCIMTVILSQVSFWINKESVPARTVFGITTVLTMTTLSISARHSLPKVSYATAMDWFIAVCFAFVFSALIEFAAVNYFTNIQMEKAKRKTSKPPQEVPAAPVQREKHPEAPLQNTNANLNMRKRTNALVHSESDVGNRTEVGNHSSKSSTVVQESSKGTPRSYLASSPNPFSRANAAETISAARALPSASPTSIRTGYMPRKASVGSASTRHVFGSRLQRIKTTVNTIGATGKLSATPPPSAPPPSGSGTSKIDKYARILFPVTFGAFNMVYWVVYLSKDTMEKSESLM

[5] = target: GABA-A receptor; alpha-2/beta-3/gamma-2 (Homo sapiens) (UniProt P18507+P28472+P47869); experiment: Agonist activity at human recombinant GABAA alpha-2-beta-3-gamma-2 receptor expressed in Xenopus oocytes at 1 to 10 uM by patch clamp technique; type: functional, cell-based; settings: Oocyte
[6] = target: T1, GABA A receptor alpha-4/beta-3/gamma-2; experiment: Displacement of [3H]flunitrazepam from human recombinant GABAA alpha-4-beta-3-gamma-2 receptor expressed in HEK cells by liquid scintillation counting; type: cell-based, HEK293
[7] = target: T2, GABA-A receptor; alpha-1/beta-3/gamma-2 (Homo sapiens, UniProt P14867+P18507+P28472); experiment: Displacement of [3H]flunitrazepam from human recombinant GABAA alpha-1-beta-3-gamma-2 receptor expressed in HEK cells by liquid scintillation counting; type: cell-based, HEK293
T2 sequence (P14867 whole entry): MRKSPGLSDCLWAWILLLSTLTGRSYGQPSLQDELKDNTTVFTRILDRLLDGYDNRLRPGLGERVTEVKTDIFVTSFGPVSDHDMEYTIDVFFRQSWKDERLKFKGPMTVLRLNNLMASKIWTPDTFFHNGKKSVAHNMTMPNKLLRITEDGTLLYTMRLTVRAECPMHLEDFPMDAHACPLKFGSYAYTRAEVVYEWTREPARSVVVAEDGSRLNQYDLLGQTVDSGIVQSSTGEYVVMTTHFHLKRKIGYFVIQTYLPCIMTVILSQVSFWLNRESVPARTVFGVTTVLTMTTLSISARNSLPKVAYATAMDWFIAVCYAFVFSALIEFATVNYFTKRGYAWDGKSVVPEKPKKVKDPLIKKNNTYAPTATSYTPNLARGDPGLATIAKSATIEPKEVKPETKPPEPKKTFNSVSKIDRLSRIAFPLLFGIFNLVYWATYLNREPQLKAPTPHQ
T2 sequence (P18507 whole entry): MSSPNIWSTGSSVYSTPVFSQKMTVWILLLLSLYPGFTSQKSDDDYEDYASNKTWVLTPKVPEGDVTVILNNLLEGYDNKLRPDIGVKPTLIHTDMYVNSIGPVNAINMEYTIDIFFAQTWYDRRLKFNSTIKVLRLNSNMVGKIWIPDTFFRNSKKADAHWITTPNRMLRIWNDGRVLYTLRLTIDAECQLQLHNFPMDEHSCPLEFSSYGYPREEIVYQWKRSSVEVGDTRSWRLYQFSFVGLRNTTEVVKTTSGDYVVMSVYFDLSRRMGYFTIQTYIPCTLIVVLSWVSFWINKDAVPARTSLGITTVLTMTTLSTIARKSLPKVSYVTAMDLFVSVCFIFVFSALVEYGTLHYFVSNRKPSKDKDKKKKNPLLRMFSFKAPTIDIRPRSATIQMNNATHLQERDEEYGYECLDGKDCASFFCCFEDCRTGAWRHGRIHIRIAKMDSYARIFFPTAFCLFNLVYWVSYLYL
T2 sequence (P28472 whole entry): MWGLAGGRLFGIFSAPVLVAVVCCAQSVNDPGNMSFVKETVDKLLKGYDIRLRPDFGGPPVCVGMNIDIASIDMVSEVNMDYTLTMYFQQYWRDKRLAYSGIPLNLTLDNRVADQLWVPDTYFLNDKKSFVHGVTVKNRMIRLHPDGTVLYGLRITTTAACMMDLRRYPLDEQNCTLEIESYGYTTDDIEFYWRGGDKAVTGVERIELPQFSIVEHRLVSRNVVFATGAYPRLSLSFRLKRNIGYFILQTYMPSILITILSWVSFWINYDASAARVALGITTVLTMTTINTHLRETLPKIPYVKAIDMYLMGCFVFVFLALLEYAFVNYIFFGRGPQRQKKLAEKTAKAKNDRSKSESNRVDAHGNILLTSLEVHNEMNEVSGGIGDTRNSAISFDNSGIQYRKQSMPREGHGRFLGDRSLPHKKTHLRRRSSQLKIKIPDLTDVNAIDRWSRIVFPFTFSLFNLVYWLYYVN

[8] = target: GABA-A receptor; alpha-6/beta-3/gamma-2 (Homo sapiens, UniProt P18507+P28472+Q16445); experiment: Displacement of [3H]flunitrazepam from human recombinant GABAA alpha-6-beta-3-gamma-2 receptor expressed in HEK cells by liquid scintillation counting; type: cell-based, HEK293
Chain of GABA-A receptor; alpha-6/beta-3/gamma-2 (Q16445 whole entry, one chain of several): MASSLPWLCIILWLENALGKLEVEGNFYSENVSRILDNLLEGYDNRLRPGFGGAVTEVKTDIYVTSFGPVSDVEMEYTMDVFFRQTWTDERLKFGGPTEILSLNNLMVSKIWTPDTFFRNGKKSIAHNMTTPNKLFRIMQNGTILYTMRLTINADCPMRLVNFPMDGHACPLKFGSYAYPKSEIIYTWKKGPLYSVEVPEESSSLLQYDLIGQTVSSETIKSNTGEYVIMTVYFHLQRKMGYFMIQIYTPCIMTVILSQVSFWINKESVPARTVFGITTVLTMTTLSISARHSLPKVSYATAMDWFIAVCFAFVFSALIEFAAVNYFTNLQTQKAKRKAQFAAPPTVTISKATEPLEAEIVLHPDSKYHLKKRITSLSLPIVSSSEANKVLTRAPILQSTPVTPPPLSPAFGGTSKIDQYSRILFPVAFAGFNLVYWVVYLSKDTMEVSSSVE

[9] = target: T3, GABA-A receptor; alpha-3/beta-3/gamma-2 (Homo sapiens, UniProt P18507+P28472+P34903); experiment: Displacement of [3H]flunitrazepam from human recombinant GABAA alpha-3-beta-3-gamma-2 receptor expressed in HEK cells by liquid scintillation counting; type: cell-based, HEK293
T3 sequence (P18507 whole entry): T2 sequence (P18507 whole entry)
T3 sequence (P28472 whole entry): T2 sequence (P28472 whole entry)
T3 sequence (P34903 whole entry): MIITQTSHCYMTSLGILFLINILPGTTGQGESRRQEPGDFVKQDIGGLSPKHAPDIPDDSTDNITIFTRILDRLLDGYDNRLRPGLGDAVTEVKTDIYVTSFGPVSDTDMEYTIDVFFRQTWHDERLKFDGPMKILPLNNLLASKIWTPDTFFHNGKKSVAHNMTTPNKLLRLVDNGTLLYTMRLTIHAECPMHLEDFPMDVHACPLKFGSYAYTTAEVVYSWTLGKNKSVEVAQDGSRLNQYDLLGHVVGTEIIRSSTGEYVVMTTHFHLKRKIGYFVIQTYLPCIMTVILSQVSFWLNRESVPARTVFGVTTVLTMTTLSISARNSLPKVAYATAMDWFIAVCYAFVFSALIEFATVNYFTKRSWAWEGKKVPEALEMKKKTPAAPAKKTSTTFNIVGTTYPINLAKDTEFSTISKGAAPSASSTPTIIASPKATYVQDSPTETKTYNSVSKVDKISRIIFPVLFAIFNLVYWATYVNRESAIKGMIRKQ

[10] = target: T4, GABA-A receptor; alpha-5/beta-3/gamma-2 (Homo sapiens, UniProt P18507+P28472+P31644); experiment: Displacement of [3H]flunitrazepam from human recombinant GABAA alpha-5-beta-3-gamma-2 receptor expressed in HEK cells by liquid scintillation counting; type: cell-based, HEK293
T4 sequence (P18507 whole entry): T2 sequence (P18507 whole entry)
T4 sequence (P28472 whole entry): T2 sequence (P28472 whole entry)
T4 sequence (P31644 whole entry): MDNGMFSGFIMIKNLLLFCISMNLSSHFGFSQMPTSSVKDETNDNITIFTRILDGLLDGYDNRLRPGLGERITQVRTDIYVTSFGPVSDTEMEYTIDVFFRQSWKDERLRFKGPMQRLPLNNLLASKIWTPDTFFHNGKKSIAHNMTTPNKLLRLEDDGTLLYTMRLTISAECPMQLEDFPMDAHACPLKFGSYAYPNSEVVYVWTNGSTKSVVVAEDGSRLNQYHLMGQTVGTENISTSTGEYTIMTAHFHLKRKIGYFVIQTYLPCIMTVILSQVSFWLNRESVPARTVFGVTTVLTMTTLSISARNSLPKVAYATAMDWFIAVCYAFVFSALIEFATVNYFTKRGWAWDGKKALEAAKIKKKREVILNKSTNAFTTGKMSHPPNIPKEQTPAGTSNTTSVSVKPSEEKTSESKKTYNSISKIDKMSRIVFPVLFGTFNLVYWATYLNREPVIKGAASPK

[11] = target: T5, GABA-A receptor; alpha-2/beta-3/gamma-2 (Homo sapiens, UniProt P18507+P28472+P47869); experiment: Displacement of [3H]flunitrazepam from human recombinant GABAA alpha-2-beta-3-gamma-2 receptor expressed in HEK cells by liquid scintillation counting; type: cell-based, HEK293
T5 sequence (P18507 whole entry): T2 sequence (P18507 whole entry)
T5 sequence (P28472 whole entry): T2 sequence (P28472 whole entry)
T5 sequence (P47869 whole entry): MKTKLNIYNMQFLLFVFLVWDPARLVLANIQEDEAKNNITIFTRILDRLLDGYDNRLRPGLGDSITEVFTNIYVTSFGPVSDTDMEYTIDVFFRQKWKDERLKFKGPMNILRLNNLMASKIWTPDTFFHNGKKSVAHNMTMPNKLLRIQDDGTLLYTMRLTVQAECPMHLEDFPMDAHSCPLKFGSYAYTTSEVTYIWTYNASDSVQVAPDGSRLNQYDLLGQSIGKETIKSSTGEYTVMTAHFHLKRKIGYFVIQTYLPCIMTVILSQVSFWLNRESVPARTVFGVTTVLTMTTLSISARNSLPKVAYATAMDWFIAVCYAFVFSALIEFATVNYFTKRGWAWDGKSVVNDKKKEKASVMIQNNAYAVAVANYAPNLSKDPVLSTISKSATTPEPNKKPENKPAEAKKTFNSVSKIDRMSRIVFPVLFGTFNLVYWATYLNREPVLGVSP

CCOC(=O)c1ncn2c1CN(C)C(=O)c1cc(F)ccc1-2
Activity [1]: 118% | Activity [2]: 96% | Activity [3]: 99%

CC(C)(C)OC(=O)c1cc2c3ccccc3nc-2c[nH]1
Activity [1]: 108% | Activity [4]: 107% | Activity [2]: 88% | Activity [5]: 99% | Ki ([6]; read-out: Ki): 1 µM | Activity [3]: 96%

C[Si](C)(C)C#Cc1ccc2[nH]c3cnc(C(=O)OCC(F)(F)F)cc3c2c1
Ki [7]: 0.017 µM | Ki [8]: > 3 µM | Ki ([6]; read-out: Ki): 0.2 µM | Ki [9]: 0.088 µM | Ki [10]: 1.44 µM | Ki [11]: 0.059 µM

CCC(C)OC(=O)c1cc2c(cn1)[nH]c1ccccc12 (stereo not given)
Ki [7]: 0.018 µM | Ki [8]: > 2 µM | Ki ([6]; hek293): Not Active | Ki [9]: 0.116 µM | Ki [10]: 0.216 µM | Ki [11]: 0.06 µM

O=C(OCC(F)(F)F)c1cc2c(cn1)[nH]c1ccccc12
Ki [7]: 0.003 µM | Ki [8]: > 2 µM | Ki ([6]; read-out: Ki): > 0.5 µM | Ki [9]: 0.0417 µM | Ki [10]: 0.126 µM | Ki [11]: 0.0245 µM

CCOC(=O)c1ncc2[nH]c3cccc(OC(C)C)c3c2c1C
Activity [2]: 96%

CC(C)(C)OC(=O)c1cc2c(cn1)[nH]c1ccc(I)cc12
Ki [7]: 0.0144 µM | Ki [8]: > 4 µM | Ki ([6]; read-out: Ki): > 4 µM | Ki [9]: 0.123 µM | Ki [10]: 0.0653 µM | Ki [11]: 0.0449 µM

CC(C)(C)OC(=O)c1cc2c(cn1)[nH]c1ccc(C#Cc3ccc4[nH]c5cnc(C(=O)OC(C)(C)C)cc5c4c3)cc12
Ki [7]: 0.03 µM | Ki [8]: > 4 µM | Ki ([6]; read-out: Ki): > 0.3 µM | Ki [9]: 0.1 µM | Ki [10]: > 0.3 µM | Ki [11]: 0.124 µM
